Holding throughout (assay): Test of herbicidal activities (greenhouse pot method)
Common to all, as to assay type: in vivo
Holding throughout (conditions): single dose 300 g ai./h, treated before/after germination, 15 days later, greenhouse pot

For one assay, the system named is Amaranthus retroflexus. On the procedure: (§1) Garden soil was collected from regions where no pesticide is used and mixed uniformly with mountain soil and organic humus soil at a volume ratio of 1:1:1.
(§2) Multiple flowerpots each having a diameter of 9.5 cm and a depth of 8 cm were filled with the soil mixture to 3/4 volume. After water was added to the soil and the soil was completely wet, seeds of three grass weeds and three broadleaf weeds were inserted into the flowerpots (10-15 seeds for each weed). After seeding, the seeds were covered with fine oil mixed with sand and having a thickness of 1-3 cm. After the soil absorbed enough water and became saturated, excess water at the bottom of the flowerpot was drained, and the seeds were placed in a greenhouse for growth.
(§3) The weeds were watered every day so as to keep relative humidity of the soil at approximately 80%, growing temperature of 15-30° C., and air humidity above 50%. As the grass weeds grew to a 2-leaf stage and the broadleaf weeds was in a leaf period, spraying operation […] was performed on the stems and leafs. Planting before germination was performed before spraying. Soil processing was performed before the seeds of the weeds emerged.
(§4) Six target weeds comprising three grass weeds: Echinochloa crusgalli, Digiatria sanguinalis, Setaria viridis, along with three broadleaf weeds: Brassica juncea, Amaranthus retroflexus, Chenopodium album were treated before/after germination using a so-called “greenhouse pot” method with a single dose. A treating dose was 300 g ai./h. The process was repeated three times, and a blank control was used.
(§5) A 3WPSHZ-500 type automatic spraying tower with a spraying area of 0.132 m^2, a spray volume of 10 mL, working pressure of 0.2 MPa, and a liquid volume of 40% of maximum was used. After treatment, the weeds were placed in a greenhouse at a temperature of 15-30° C. Reaction symptoms of the weeds were regularly observed, and 15 days later, five reaction levels were determined according to the following inhibition intervals: 90≦A≦100%; 80≦B<90%, 60≦C<80%; 50≦D<60%, E<50%.

For a further assay, the system named is Brassica juncea. On the procedure: as §1, §2, §3, §4, §5
Another assay concerns Chenopodium album. How it is done:
as §1, §2, §3, §4, §5

The subject of another assay is Digiatria sanguinalis. How it is done:
as §1, §2, §3, §4, §5

For another assay, the system named is Echinochloa crusgalli. How it is done: as §1, §2, §3, §4, §5
A further assay deals with Setaria viridis. How it is done: as §1, §2, §3, §4, §5

For the molecule `CCCSc1nc2cc(-n3nc(C)n(C(F)F)c3=O)c(Cl)cc2s1` [Compound 100], the “Herbicidal activity Amaranthus retroflexus (inhibition level)” value in the assay on Amaranthus retroflexus is recorded as “A (90 ≦ A ≦ 100%)”. In addition, in the assay on Brassica juncea, the “Herbicidal activity Brassica juncea (inhibition level)” value is on record as “A (90 ≦ A ≦ 100%)”. Besides, the “Herbicidal activity Chenopodium album (inhibition level)” value with Chenopodium album is given as “A (90 ≦ A ≦ 100%)”. Besides, in the assay on Digiatria sanguinalis, the “Herbicidal activity Digiatria sanguinalis (inhibition level)” value is “B (80 ≦ B < 90%)”. Moreover, the “Herbicidal activity Echinochloa crusgalli (inhibition level)” value with Echinochloa crusgalli was “B (80 ≦ B < 90%)”. The “Herbicidal activity Setaria viridis (inhibition level)” value in the assay on Setaria viridis is listed as “C (60 ≦ C < 80%)”.

As to `Cc1nn(-c2cc3nc(SCc4ccccc4Cl)sc3cc2F)c(=O)n1C(F)F` [Compound 24], the “Herbicidal activity Amaranthus retroflexus (inhibition level)” value with Amaranthus retroflexus is listed as “A (90 ≦ A ≦ 100%)”. For the same molecule, the “Herbicidal activity Brassica juncea (inhibition level)” value in the assay with Brassica juncea is “C (60 ≦ C < 80%)”. Also, the “Herbicidal activity Chenopodium album (inhibition level)” value with Chenopodium album is given as “B (80 ≦ B < 90%)”. Moreover, the “Herbicidal activity Digiatria sanguinalis (inhibition level)” value in the assay on Digiatria sanguinalis is on record as “B (80 ≦ B < 90%)”. In addition, the “Herbicidal activity Echinochloa crusgalli (inhibition level)” value in the assay on Echinochloa crusgalli is listed as “C (60 ≦ C < 80%)”. The “Herbicidal activity Setaria viridis (inhibition level)” value in the assay with Setaria viridis was “D (50 ≦ D < 60%)”.

With `CSc1nc2cc(-n3nc(C)n(C(F)F)c3=O)c(Cl)cc2s1` [Compound 96], the “Herbicidal activity Amaranthus retroflexus (inhibition level)” value with Amaranthus retroflexus is “B (80 ≦ B < 90%)”. The “Herbicidal activity Brassica juncea (inhibition level)” value in the assay on Brassica juncea is given as “B (80 ≦ B < 90%)”. The “Herbicidal activity Chenopodium album (inhibition level)” value with Chenopodium album is recorded as “B (80 ≦ B < 90%)”. The “Herbicidal activity Digiatria sanguinalis (inhibition level)” value in the assay on Digiatria sanguinalis is given as “B (80 ≦ B < 90%)”. Also, in the assay on Echinochloa crusgalli, the “Herbicidal activity Echinochloa crusgalli (inhibition level)” value was “B (80 ≦ B < 90%)”. Besides, the “Herbicidal activity Setaria viridis (inhibition level)” value in the assay on Setaria viridis is given as “C (60 ≦ C < 80%)”.

Turning to `C=CCSc1nc2cc(-n3nc(C(F)(F)F)n(C(F)F)c3=O)c(Br)cc2s1` [Compound 128], the “Herbicidal activity Amaranthus retroflexus (inhibition level)” value in the assay on Amaranthus retroflexus is “A (90 ≦ A ≦ 100%)”. In the assay with Brassica juncea, the “Herbicidal activity Brassica juncea (inhibition level)” value is listed as “A (90 ≦ A ≦ 100%)”. Also, the “Herbicidal activity Chenopodium album (inhibition level)” value in the assay with Chenopodium album is given as “B (80 ≦ B < 90%)”. The “Herbicidal activity Digiatria sanguinalis (inhibition level)” value with Digiatria sanguinalis is recorded as “C (60 ≦ C < 80%)”. In addition, in the assay on Echinochloa crusgalli, the “Herbicidal activity Echinochloa crusgalli (inhibition level)” value was “A (90 ≦ A ≦ 100%)”. In the assay on Setaria viridis, the “Herbicidal activity Setaria viridis (inhibition level)” value is on record as “D (50 ≦ D < 60%)”.

Regarding `Cc1nn(-c2cc3nc(S(=O)(=O)Cc4cccc(Cl)c4)sc3cc2Cl)c(=O)n1C(F)F` [Compound 40], in the assay with Amaranthus retroflexus, the “Herbicidal activity Amaranthus retroflexus (inhibition level)” value is reported as “B (80 ≦ B < 90%)”. Also, the “Herbicidal activity Brassica juncea (inhibition level)” value with Brassica juncea is given as “B (80 ≦ B < 90%)”. Also, the “Herbicidal activity Chenopodium album (inhibition level)” value in the assay with Chenopodium album is listed as “D (50 ≦ D < 60%)”. In the assay on Digiatria sanguinalis, the “Herbicidal activity Digiatria sanguinalis (inhibition level)” value was “C (60 ≦ C < 80%)”. For the same molecule, the “Herbicidal activity Echinochloa crusgalli (inhibition level)” value in the assay with Echinochloa crusgalli was “E (E < 50%)”. In addition, the “Herbicidal activity Setaria viridis (inhibition level)” value in the assay on Setaria viridis was “C (60 ≦ C < 80%)”.

Take `Cc1nn(-c2cc3nc(SCc4c(F)cccc4F)sc3cc2Cl)c(=O)n1C(F)F` [Compound 9]: in the assay on Amaranthus retroflexus, the “Herbicidal activity Amaranthus retroflexus (inhibition level)” value was “B (80 ≦ B < 90%)”. For the same molecule, the “Herbicidal activity Brassica juncea (inhibition level)” value with Brassica juncea is listed as “A (90 ≦ A ≦ 100%)”. Further, the “Herbicidal activity Chenopodium album (inhibition level)” value in the assay with Chenopodium album is on record as “C (60 ≦ C < 80%)”. Further, in the assay on Digiatria sanguinalis, the “Herbicidal activity Digiatria sanguinalis (inhibition level)” value is recorded as “B (80 ≦ B < 90%)”. In addition, the “Herbicidal activity Echinochloa crusgalli (inhibition level)” value in the assay with Echinochloa crusgalli was “B (80 ≦ B < 90%)”. Further, the “Herbicidal activity Setaria viridis (inhibition level)” value with Setaria viridis is reported as “E (E < 50%)”.

Regarding `CCOC(=O)CS(=O)(=O)c1nc2cc(-n3nc(C)n(C(F)F)c3=O)c(Cl)cc2s1` [Compound 70], the “Herbicidal activity Amaranthus retroflexus (inhibition level)” value in the assay with Amaranthus retroflexus is “B (80 ≦ B < 90%)”. For the same molecule, the “Herbicidal activity Brassica juncea (inhibition level)” value in the assay on Brassica juncea is reported as “B (80 ≦ B < 90%)”. Moreover, the “Herbicidal activity Chenopodium album (inhibition level)” value with Chenopodium album is listed as “B (80 ≦ B < 90%)”. Besides, in the assay with Digiatria sanguinalis, the “Herbicidal activity Digiatria sanguinalis (inhibition level)” value was “B (80 ≦ B < 90%)”. Also, in the assay on Echinochloa crusgalli, the “Herbicidal activity Echinochloa crusgalli (inhibition level)” value was “B (80 ≦ B < 90%)”. Moreover, the “Herbicidal activity Setaria viridis (inhibition level)” value in the assay on Setaria viridis is reported as “B (80 ≦ B < 90%)”.

In the case of `C#CCSc1nc2cc(-n3nc(C)n(C(F)F)c3=O)c(F)cc2s1` [Compound 130], the “Herbicidal activity Amaranthus retroflexus (inhibition level)” value in the assay on Amaranthus retroflexus is given as “A (90 ≦ A ≦ 100%)”. The “Herbicidal activity Brassica juncea (inhibition level)” value in the assay with Brassica juncea is “D (50 ≦ D < 60%)”. The “Herbicidal activity Chenopodium album (inhibition level)” value in the assay with Chenopodium album is recorded as “B (80 ≦ B < 90%)”. The “Herbicidal activity Digiatria sanguinalis (inhibition level)” value in the assay with Digiatria sanguinalis is “C (60 ≦ C < 80%)”. Further, the “Herbicidal activity Echinochloa crusgalli (inhibition level)” value in the assay on Echinochloa crusgalli is reported as “B (80 ≦ B < 90%)”. The “Herbicidal activity Setaria viridis (inhibition level)” value with Setaria viridis is “A (90 ≦ A ≦ 100%)”.

`Cc1nn(-c2cc3nc(SCc4ccc(Cl)cc4)sc3cc2Br)c(=O)n1C(F)F` [Compound 25]: in the assay on Amaranthus retroflexus, the “Herbicidal activity Amaranthus retroflexus (inhibition level)” value was “E (E < 50%)”. For the same molecule, in the assay with Brassica juncea, the “Herbicidal activity Brassica juncea (inhibition level)” value is listed as “C (60 ≦ C < 80%)”. Also, the “Herbicidal activity Chenopodium album (inhibition level)” value in the assay with Chenopodium album is listed as “E (E < 50%)”. Moreover, the “Herbicidal activity Digiatria sanguinalis (inhibition level)” value in the assay with Digiatria sanguinalis is reported as “C (60 ≦ C < 80%)”. In addition, in the assay on Echinochloa crusgalli, the “Herbicidal activity Echinochloa crusgalli (inhibition level)” value is on record as “D (50 ≦ D < 60%)”. For the same molecule, the “Herbicidal activity Setaria viridis (inhibition level)” value with Setaria viridis was “B (80 ≦ B < 90%)”.

On to `CCOC(=O)C(C)S(=O)(=O)c1nc2cc(-n3nc(C)n(C(F)F)c3=O)c(Br)cc2s1` (stereo not drawn) [Compound 59], for which the “Herbicidal activity Amaranthus retroflexus (inhibition level)” value with Amaranthus retroflexus is reported as “A (90 ≦ A ≦ 100%)”. In the assay with Brassica juncea, the “Herbicidal activity Brassica juncea (inhibition level)” value is “A (90 ≦ A ≦ 100%)”. For the same molecule, the “Herbicidal activity Chenopodium album (inhibition level)” value in the assay on Chenopodium album is “B (80 ≦ B < 90%)”. Further, in the assay on Digiatria sanguinalis, the “Herbicidal activity Digiatria sanguinalis (inhibition level)” value is listed as “C (60 ≦ C < 80%)”. The “Herbicidal activity Echinochloa crusgalli (inhibition level)” value in the assay with Echinochloa crusgalli was “D (50 ≦ D < 60%)”. The “Herbicidal activity Setaria viridis (inhibition level)” value in the assay with Setaria viridis was “C (60 ≦ C < 80%)”.

Consider `CCS(=O)(=O)c1nc2cc(-n3nc(C)n(C(F)F)c3=O)c(Cl)cc2s1` [Compound 58], for which the “Herbicidal activity Amaranthus retroflexus (inhibition level)” value in the assay with Amaranthus retroflexus is recorded as “A (90 ≦ A ≦ 100%)”. Also, the “Herbicidal activity Brassica juncea (inhibition level)” value in the assay on Brassica juncea is listed as “B (80 ≦ B < 90%)”. The “Herbicidal activity Chenopodium album (inhibition level)” value with Chenopodium album is on record as “A (90 ≦ A ≦ 100%)”. Moreover, the “Herbicidal activity Digiatria sanguinalis (inhibition level)” value in the assay on Digiatria sanguinalis was “A (90 ≦ A ≦ 100%)”. For the same molecule, the “Herbicidal activity Echinochloa crusgalli (inhibition level)” value in the assay on Echinochloa crusgalli was “B (80 ≦ B < 90%)”. Also, the “Herbicidal activity Setaria viridis (inhibition level)” value with Setaria viridis is on record as “C (60 ≦ C < 80%)”.

Regarding `Cc1nn(-c2cc3nc(SCc4cccc(F)c4)sc3cc2Cl)c(=O)n1C(F)F` [Compound 7], the “Herbicidal activity Amaranthus retroflexus (inhibition level)” value with Amaranthus retroflexus is recorded as “B (80 ≦ B < 90%)”. Also, the “Herbicidal activity Brassica juncea (inhibition level)” value with Brassica juncea was “C (60 ≦ C < 80%)”. The “Herbicidal activity Chenopodium album (inhibition level)” value with Chenopodium album is listed as “E (E < 50%)”. The “Herbicidal activity Digiatria sanguinalis (inhibition level)” value in the assay with Digiatria sanguinalis was “B (80 ≦ B < 90%)”. In addition, the “Herbicidal activity Echinochloa crusgalli (inhibition level)” value with Echinochloa crusgalli is reported as “E (E < 50%)”. The “Herbicidal activity Setaria viridis (inhibition level)” value with Setaria viridis was “B (80 ≦ B < 90%)”.

Take `CSc1nc2cc(-n3nc(C(F)(F)F)n(C(F)F)c3=O)c(Cl)cc2s1` [Compound 125]: the “Herbicidal activity Amaranthus retroflexus (inhibition level)” value in the assay on Amaranthus retroflexus is reported as “A (90 ≦ A ≦ 100%)”. For the same molecule, the “Herbicidal activity Brassica juncea (inhibition level)” value in the assay on Brassica juncea is on record as “C (60 ≦ C < 80%)”. In the assay on Chenopodium album, the “Herbicidal activity Chenopodium album (inhibition level)” value is “B (80 ≦ B < 90%)”. For the same molecule, the “Herbicidal activity Digiatria sanguinalis (inhibition level)” value in the assay with Digiatria sanguinalis is listed as “B (80 ≦ B < 90%)”. The “Herbicidal activity Echinochloa crusgalli (inhibition level)” value in the assay on Echinochloa crusgalli is “B (80 ≦ B < 90%)”. Besides, in the assay with Setaria viridis, the “Herbicidal activity Setaria viridis (inhibition level)” value is listed as “C (60 ≦ C < 80%)”.

Source of the values: patent publication US7666890B2, “Synthesis and herbicidal activity of 1- (2-substituted benzo[d]thiazol-5-yl)-1H-1,2,4-triazol-5(4H)-one derivatives” (Huazhong Normal University, priority 2007, dated 2010).
